From paper PMC10961089, “Epidermal growth factor receptor inhibition potentiates chemotherapeutics‐mediated sensitization of metastatic breast cancer stem cells” (Cancer Reports, 2024)

What was measured:
Assay type in all cases: cell-based, human
[1] = test system: CD24^−/CD44^+‐breast CSC population sorted from MDA‐MB‐231; assay: MTT assay in sorted breast CSC population; conditions: doxorubicin 0.01 μM + 1e 5 μM vs doxorubicin 0.01 μM alone
Experimental: (§1) To evaluate the cytotoxicity profile of the potential EGFR inhibitors (compounds) against TNBC cell lines—MDA‐MB‐231, MDA‐MB‐468, and control cell line HEK293, cells were seeded at a cell density of 5 × 10^3 cells/well in complete medium onto 96‐well plates. Here, the non‐tumoral human embryonic kidney (HEK293) epithelial cells have been utilized as a control cell line to compare the IC50 values of the compounds between cancerous and non‐cancerous cell lines with a big therapeutic window. The use of HEK293 cells as compared to other non‐cancerous cell lines are easy to maintain in culture and the results obtained from HEK293 are highly reproducible and consistent.[27] Briefly, the cells were incubated at 37°C for 12 h to attain morphology. After 12 h, cells were serum starved by replacing the complete media with media containing 2% FBS to synchronize the cells. […] All the experiments were performed thrice and the IC50 values of the compounds and Doxorubicin were calculated using GraphPad Prism software version 9 (San Diego, CA, USA). Similarly, the percent inhibition of the sorted cell populations by chemotherapeutic drug, doxorubicin in the absence/presence of potent compound 1e or standard EGFR inhibitor, PD153035 was evaluated utilizing GraphPad Prism Version 9 (San Diego, CA, USA).

[2] = test system: CD24^+‐breast cancer cells sorted from MDA‐MB‐231; assay: MTT assay in sorted breast cancer cells; conditions: doxorubicin 0.01 μM + 1e 5 μM vs doxorubicin 0.01 μM alone
Experimental: as §1

[3] = test system: CD24^+‐breast cancer cells; assay: Cell migration (chemotaxis), Boyden-Chamber assay, sorted cells; conditions: Doxorubicin 0.01 μM + 1e 5 μM vs 10% FBS
Experimental: (§2) TNBC cell lines—MDA‐MB‐231, MDA‐MB‐468, and the sorted CD24^+‐breast cancer cells, and CD24^−/CD44^+‐breast CSC populations from MDA‐MB‐231 [6] were seeded at a density of 1 × 10^6 cells/well to evaluate their migratory potential by Boyden‐Chamber assay. […] At the end of the treatment period, the cells were plated at a density of 5 × 10^3 cells/well in the upper chamber of the Boyden chamber assembly and 10% FBS in the lower chamber was used as a chemoattractant. Separately, the cells in the upper chamber were treated with Doxorubicin (0.01–0.1 μM) alone or with the potential EGFR inhibitors (compounds—1c, 1e, 1g, 1h, 1j, and 1k (5 μM) based on their low IC50 values) or a commercial EGFR inhibitor, PD153035 (10 μM) and incubated for 4 h followed by fixation and staining as described previously.[28], [29]

[4] = test system: CD24^−/CD44^+‐breast CSC populations; assay: as above; conditions: sorted CD24^−/CD44^+ CSCs; Doxorubicin 0.01 μM + 1e 5 μM vs 10% FBS
Experimental: as §2

MDA‐MB‐231 cells = assay: Apoptosis assay, Hoechst 33342 staining; conditions: MDA-MB-231, combinatorial treatment with doxorubicin, 48 h, vs other treatment groups
Experimental: MDA‐MB‐231 cells were seeded at a density of 3 × 10^4 cells/well and cultured on a coverslip for 24 h at 37°C followed by 12 h serum starvation in 6‐well plates. The cells were treated with Doxorubicin (0.01 and 0.1 μM) in the absence or presence of compounds—1c, 1e, 1g, 1h, 1j, and 1k and incubated for 48 h. Post‐treatment, the cells were fixed using 4% Paraformaldehyde and stained with Hoechst 33342 dye (2 mg/mL; Invitrogen, USA) for 30 min. Apoptotic cells were identified by visualizing the fragmentation and condensation of nuclei using a confocal microscope (Olympus, USA).[30]

## c1cncc(C(c2c[nH]c3ccccc23)c2c[nH]c3ccccc23)c1 [1e]
[1]
  increase of percent inhibition of cell proliferation versus doxorubicin alone: 6.1 folds
[2]
  increase of percent inhibition of cell proliferation versus doxorubicin alone: 1.8 folds
[3]
  migratory potential: significantly reduced
[4]
  migratory potential: significantly reduced
MDA‐MB‐231 cells
  doxorubicin‐induced nuclear fragmentation (apoptosis): markedly increased
